Test results: US12168678B2, “Heme sequesting peptides and uses therefor” (Board of Regents, The University of Texas System, priority 2019, dated 2024)
Where a name gives a salt, the structure may show the parent alone.

Key:
[1] = test system: A549 cells; experiment: Colony formation assay; format: cell-based, human; conditions: for effect of heme addition on colony formation: 10 μM heme add-back; for effect of iron addition on colony formation: 50 μM ferric chloride; for colony formation: 6 days, 0.5 mM succinyl acetone, 10 μM HSPs, 50 μM DFX, 10 μM SnPP
Experimental: (§1) Cell proliferation was measured by detecting the luciferase activity in live cells and by using a hemocytometer. Cell migration and invasion assays were carried out with BD Falcon cell culture inserts (Corning Life Sciences) and the manufacturer's cell migration, chemotaxis, and invasion assay protocols. For the colony formation assay, 5000 NSCLC cells were seeded in every well in 6-well tissue culture plates in triplicates. Cells were treated with 0.5 mM succinyl acetone (Sigma Aldrich), 10 μM HSPs, 50 μM deferoxamine mesylate (DFX), 10 μM zinc (II) protoporphyrin IX, 10 μM tin (IV) protoporphyrin IX, or 50 μM ferric chloride for 6 days. For heme add-back experiments, 10 μM heme was included. Medium was changed every 3 days. After 6 days of treatment, cells were fixed with 70% ethanol and stained with 0.5% crystal violet. Images were acquired by using Carestream Gel Logic GL-112 imaging system.

[2] = test system: H1299 cells; experiment: Colony formation assay; format: cell-based, human; conditions: for effect of heme addition on colony formation: 10 μM heme add-back; for effect of iron addition on colony formation: 50 μM ferric chloride; for colony formation: 6 days, 0.5 mM succinyl acetone, 10 μM HSPs, 50 μM DFX, 10 μM SnPP
Experimental: as §1

[3] = test system: A549 NSCLC cells; experiment: Cell migration assay (Transwell inserts); format: cell-based, human; conditions: 10 μM heme
Experimental: as §1

[4] = test system: H1299 NSCLC cells; experiment: Cell migration assay (Transwell inserts); format: cell-based, human; conditions: heme add-back 10 μM, b23 prints 10 mM
Experimental: as §1

[5] = test system: H1299 NSCLC cells; experiment: Cell invasion assay (Matrigel invasion chambers); format: cell-based, human; conditions: heme add-back 10 μM, b23 prints 10 mM
[6] = test system: A549 NSCLC cells; experiment: Cell invasion assay (Matrigel invasion chambers); format: cell-based, human; conditions: 10 μM heme
[7] = test system: H1299 NSCLC lung tumor xenografts; format: in vivo; conditions: SA 50 mg/kg I.V. every 3 days, from 4 days after implantation
[8] = test system: 5-aminolevulic synthase (ALAS1); conditions: previous studies, non-erythroid cells; cited from earlier work
[9] = references 55, 56; cited from earlier work
[10] = test system: heme oxygenases; conditions: reference 51; cited from earlier work

Molecule | effect of heme addition on colony formation [1] | effect of iron addition on colony formation [1] | colony formation [1] | effect of heme addition on colony formation [2] | effect of iron addition on colony formation [2] | colony formation [2] | effect of heme addition on reduced migration [3] | effect of heme addition on reduced migration [4] | effect of heme addition on reduced invasion [5] | effect of heme addition on reduced invasion [6] | suppression of lung tumors (BLI) [7] | inhibition of heme biosynthesis [8] | toxicity to animals [9] | inhibition of the activities of heme oxygenases [10]
CC(=O)N(O)CCCCCNC(=O)CCC(=O)N(O)CCCCCNC(=O)CCC(=O)N(O)CCCCCN [DFX, Deferoxamine mesylate] | partially reversed | largely reversed | reduced colony formation | partially reversed | largely reversed | reduced colony formation |  |  |  |  |  |  |  | 
CC(=O)CC(=O)CCC(=O)O [succinyl acetone, Succinyl acetone] | largely reversed | did not reverse | strongly suppressed colony formation | largely reversed | did not reverse | strongly suppressed colony formation | largely reversed | largely reversed | largely reversed | largely reversed | not very effective | effective inhibitor | low toxicity | 
Tin (IV) protoporphyrin [SnPP] |  |  | appeared to reduce colony formation |  |  | appeared to reduce colony formation |  |  |  |  |  |  |  | strong inhibitor
